Test results from paper PMC10672842, “Anti-Trypanosoma cruzi Activity, Mutagenicity, Hepatocytotoxicity and Nitroreductase Enzyme Evaluation of 3-Nitrotriazole, 2-Nitroimidazole and Triazole Derivatives” (Molecules, 2023).
Where two headings read alike, the source gives them in different places.

Assays:
S. typhimurium TA98 = assay: Salmonella reverse mutation assay (Ames test, preincubation), TA98
Procedure: (§1) The compounds were tested in a reverse mutation assay preincubation protocol in the absence and presence of metabolic activation following standard protocols previously proposed by Maron and Ames. The histidine-dependent (his^−) strains TA98 and TA100 of Salmonella typhimurium were inoculated in 10 mL of Oxoid nutrient broth No. 2 containing 25 µg/mL ampicillin and incubated overnight (15–18 h) at 37 ± 1 °C on an orbital shaker (CT-712, Cientec, Belo Horizonte, MG, Brazil) at 150 rpm, obtaining a concentration of 1–2 × 10^9 cells/mL, confirmed by titration in nutrient agar plates. Briefly, 100 µL of stationary growth cultures of each strain were preincubated for 20 min on an orbital shaker (150 rpm) at 37 ± 1 °C, with 500 µL of 0.2 M phosphate buffer pH 7.4, or 500 µL of S9 mix 4% (Molecular Toxicology, Baltimore, MD, USA), and 100 µL of compound dilutions (0–5000 µM) or controls. DMSO 1% was used as a negative control. […] After incubation, 2 mL of top agar (0.7% agar, 0.5% NaCl, 0.05 mM L-histidine and D-biotin) at 45 ± 3 °C was added and gently mixed. The final mixture was poured on glucose minimal agar plates (1.5% agar, 10 g/L MgSO4·7H2O; 100 g/L of C6H8O7·H2O; 500 g/L K2HPO4; 175 g/L Na(NH4)HPO4·4H2O, 2% glucose) and incubated for 72 h at 37 ± 1 °C. The results were expressed as the mean of revertant colonies (His^+) per plate, standard deviation (SD) and mutagenicity induction fold (IF), calculated as the ratio between the number of colonies in the test group and the number of colonies in the negative control group. Mutagenic potency was calculated as the slope of the linear portion of the concentration–response function and expressed as revertants/µM. All assays were performed in triplicate and repeated at least two times. Statistical analyses were carried out in GraphPad Prism software (version 5.00, GraphPad Software, Boston, MA, USA).

[1] = test system: T. cruzi (Tulahuen strain); assay: In vitro anti-T. cruzi evaluation in an intracellular model (trypomastigote and amastigote forms, L929 host cells, β-galactosidase readout); type: cell-based, Trypanosoma cruzi; conditions: for IC50: Trypanosoma cruzi, TULAHUEN, L929, 96 h, Tulahuen strain, intracellular trypomastigote and amastigote forms in L929 fibroblasts, 96 h, read-out: IC50 T. cruzi; for SI: selectivity index, L929 cells vs T. cruzi
Procedure: Derivatives 5–10 were evaluated in vitro against T. cruzi in an intracellular model on the trypomastigote and amastigote forms of the parasite of the Tulahuen strain [20]. This model is interesting because it mimics the life cycle of the parasite, as both clinically relevant forms are present in the environment. The mammalian host cells used were fibroblasts from L929 mice.
This assay was performed as previously described by Buckner et al. (1996) using T. cruzi (Tulahuen strain), which expresses the β-galactosidase gene of Escherichia coli. Infectious trypomastigote forms were obtained by culturing fibroblast monolayers of L929 mice in RPMI-1640 medium (pH 7.2–7.4) without phenol red (Gibco BRL), containing 10% fetal bovine serum and 2 mM glutamine. For the bioassay, 4000 L929 cells in 80 µL of supplemented medium were added to each well of a 96-well microtiter plate. After overnight incubation, 40,000 trypomastigotes in 20 µL were added to the cells and incubated for 2 h. […] The medium was then replaced with compound solutions at 1.0 µg/mL in fresh medium (200 µL), and the plate was incubated for 96 h at 37 °C. After this period, 50 µL of chlorophenol D-galactopyranoside red (500 µM) in 0.5% Nonidet P40 was added to each well, and the plate was incubated for 18 h at 37 °C. After this, the absorbance was measured at 570 nm. Controls with uninfected cells and infected cells treated with benznidazole were performed in parallel. The results are expressed as the percentage of T. cruzi growth inhibition in cells tested with compost compared to infected and untreated cells. The tests were performed in triplicate.

S. typhimurium TA100 = conditions: for Mutagenicity in the Ames test (verdict): TA100, absence or presence of metabolic activation
Procedure: as §1

O=[N+]([O-])c1ncn(CC(O)c2ccc(F)cc2F)n1 (stereo not drawn) [Compound 8, 1-(2,4-Difluorophenyl)-2-(3-nitro-1H-1,2,4-triazol-1-yl)ethanol]
IF (induction factor) (S. typhimurium TA98; TA98, +S9, 0.5 µM): 1.0 | revertant His+ colonies, mean ± SD (S. typhimurium TA98; TA98, +S9, 0.5 µM): 24 ± 2 | IF (induction factor) (S. typhimurium TA98; TA98, +S9, 5 µM): 1.0 | revertant His+ colonies, mean ± SD (S. typhimurium TA98; TA98, +S9, 5 µM): 24 ± 7 | IF (induction factor) (S. typhimurium TA98; TA98, +S9, 50 µM): 1.0 | revertant His+ colonies, mean ± SD (S. typhimurium TA98; TA98, +S9, 50 µM): 23 ± 3 | IF (induction factor) (S. typhimurium TA98; TA98, +S9, 500 µM): 1.0 | revertant His+ colonies, mean ± SD (S. typhimurium TA98; TA98, +S9, 500 µM): 24 ± 5 | IF (induction factor) (S. typhimurium TA98; TA98, +S9, 5000 µM): 1.1 | revertant His+ colonies, mean ± SD (S. typhimurium TA98; TA98, +S9, 5000 µM): 26 ± 1 | Mutagenicity in the Ames test (verdict) (S. typhimurium TA98; TA98, absence or presence of metabolic activation): not mutagenic | IF (induction factor) (S. typhimurium TA98; TA98, −S9, 0.5 µM): 0.9 | revertant His+ colonies, mean ± SD (S. typhimurium TA98; TA98, −S9, 0.5 µM): 23 ± 4 | IF (induction factor) (S. typhimurium TA98; TA98, −S9, 5 µM): 0.9 | revertant His+ colonies, mean ± SD (S. typhimurium TA98; TA98, −S9, 5 µM): 23 ± 1 | IF (induction factor) (S. typhimurium TA98; TA98, −S9, 50 µM): 1.1 | revertant His+ colonies, mean ± SD (S. typhimurium TA98; TA98, −S9, 50 µM): 30 ± 3 | revertant His+ colonies, mean ± SD (S. typhimurium TA98; TA98, −S9, 500 µM): Cytotoxic | IC50 [1]: 390 ± 10 nM | times more potent against T. cruzi than 9 ([1]; ratio of IC50 T. cruzi to 2-nitroimidazole 9): approximately 8 | fold more potent against T. cruzi than BZN ([1]; ratio of IC50 T. cruzi to BZN): ~4 | times more potent against T. cruzi than 5 ([1]; ratio of IC50 T. cruzi to carbonyl counterpart 5): more than 4 | times more potent against T. cruzi than 10 ([1]; ratio of IC50 T. cruzi to triazole 10): more than 300 | fold more selective than BZN ([1]; ratio of selectivity index to BZN): 2 | SI [1]: 3077 | IF (induction factor) (S. typhimurium TA100; TA100, +S9, 0.5 µM): 1.2 | revertant His+ colonies, mean ± SD (S. typhimurium TA100; TA100, +S9, 0.5 µM): 129 ± 21 | IF (induction factor) (S. typhimurium TA100; TA100, +S9, 5 µM): 1.2 | revertant His+ colonies, mean ± SD (S. typhimurium TA100; TA100, +S9, 5 µM): 128 ± 6 | IF (induction factor) (S. typhimurium TA100; TA100, +S9, 50 µM): 1.4 | revertant His+ colonies, mean ± SD (S. typhimurium TA100; TA100, +S9, 50 µM): 150 ± 14 | IF (induction factor) (S. typhimurium TA100; TA100, +S9, 500 µM): 1.4 | revertant His+ colonies, mean ± SD (S. typhimurium TA100; TA100, +S9, 500 µM): 145 ± 8 | IF (induction factor) (S. typhimurium TA100; TA100, +S9, 5000 µM): 1.7 | revertant His+ colonies, mean ± SD (S. typhimurium TA100; TA100, +S9, 5000 µM): 183 ± 9 | Mutagenicity in the Ames test (verdict) (S. typhimurium TA100): not mutagenic | IF (induction factor) (S. typhimurium TA100; TA100, −S9, 0.5 µM): 1.1 | revertant His+ colonies, mean ± SD (S. typhimurium TA100; TA100, −S9, 0.5 µM): 77 ± 5 | IF (induction factor) (S. typhimurium TA100; TA100, −S9, 5 µM): 1.1 | revertant His+ colonies, mean ± SD (S. typhimurium TA100; TA100, −S9, 5 µM): 77 ± 15 | IF (induction factor) (S. typhimurium TA100; TA100, −S9, 50 µM): 1.1 | revertant His+ colonies, mean ± SD (S. typhimurium TA100; TA100, −S9, 50 µM): 77 ± 13 | IF (induction factor) (S. typhimurium TA100; TA100, −S9, 500 µM): 1.3 | revertant His+ colonies, mean ± SD (S. typhimurium TA100; TA100, −S9, 500 µM): 91 ± 8 | IF (induction factor) (S. typhimurium TA100; TA100, −S9, 5000 µM): 1.5 | revertant His+ colonies, mean ± SD (S. typhimurium TA100; TA100, −S9, 5000 µM): 108 ± 10

O=[N+]([O-])c1nccn1CC(O)c1ccc(F)cc1F (stereo not drawn) [Compound 9, 1-(2,4-Difluorophenyl)-2-(2-nitro-1H-imidazol-1-yl)ethanol]
IF (induction factor) (S. typhimurium TA98; TA98, +S9, 0.5 µM): 0.8 | revertant His+ colonies, mean ± SD (S. typhimurium TA98; TA98, +S9, 0.5 µM): 18 ± 2 | IF (induction factor) (S. typhimurium TA98; TA98, +S9, 5 µM): 0.8 | revertant His+ colonies, mean ± SD (S. typhimurium TA98; TA98, +S9, 5 µM): 18 ± 2 | IF (induction factor) (S. typhimurium TA98; TA98, +S9, 50 µM): 0.9 | revertant His+ colonies, mean ± SD (S. typhimurium TA98; TA98, +S9, 50 µM): 22 ± 8 | IF (induction factor) (S. typhimurium TA98; TA98, +S9, 500 µM): 1.0 | revertant His+ colonies, mean ± SD (S. typhimurium TA98; TA98, +S9, 500 µM): 24 ± 5 | IF (induction factor) (S. typhimurium TA98; TA98, +S9, 5000 µM): 1.2 | revertant His+ colonies, mean ± SD (S. typhimurium TA98; TA98, +S9, 5000 µM): 28 ± 2 | IF (induction factor) (S. typhimurium TA98; TA98, −S9, 0.5 µM): 0.7 | revertant His+ colonies, mean ± SD (S. typhimurium TA98; TA98, −S9, 0.5 µM): 18 ± 6 | IF (induction factor) (S. typhimurium TA98; TA98, −S9, 5 µM): 0.7 | revertant His+ colonies, mean ± SD (S. typhimurium TA98; TA98, −S9, 5 µM): 18 ± 2 | IF (induction factor) (S. typhimurium TA98; TA98, −S9, 50 µM): 1.1 | revertant His+ colonies, mean ± SD (S. typhimurium TA98; TA98, −S9, 50 µM): 29 ± 3 | IF (induction factor) (S. typhimurium TA98; TA98, −S9, 500 µM): 1.8 | revertant His+ colonies, mean ± SD (S. typhimurium TA98; TA98, −S9, 500 µM): 49 ± 5 | IF (induction factor) (S. typhimurium TA98; TA98, −S9, 5000 µM): 6.5 | revertant His+ colonies, mean ± SD (S. typhimurium TA98; TA98, −S9, 5000 µM): 173 ± 21 | IC50 [1]: 3050 ± 70 nM | times more potent against T. cruzi than 6 ([1]; ratio of IC50 T. cruzi to 2-nitroimidazole ketone 6): approximately 30 | SI [1]: >131 | Mutagenic potency (slope of the linear portion of the concentration–response function) (S. typhimurium TA100; TA100, +S9): 292.1 revertants/µM | IF (induction factor) (S. typhimurium TA100; TA100, +S9, 0.5 µM): 1.5 | revertant His+ colonies, mean ± SD (S. typhimurium TA100; TA100, +S9, 0.5 µM): 159 ± 7 | IF (induction factor) (S. typhimurium TA100; TA100, +S9, 5 µM): 2.1 | revertant His+ colonies, mean ± SD (S. typhimurium TA100; TA100, +S9, 5 µM): 218 ± 14 | IF (induction factor) (S. typhimurium TA100; TA100, +S9, 50 µM): 2.2 | revertant His+ colonies, mean ± SD (S. typhimurium TA100; TA100, +S9, 50 µM): 233 ± 48 | IF (induction factor) (S. typhimurium TA100; TA100, +S9, 500 µM): 9.7 | revertant His+ colonies, mean ± SD (S. typhimurium TA100; TA100, +S9, 500 µM): 1025 ± 16 | IF (induction factor) (S. typhimurium TA100; TA100, +S9, 5000 µM): 11.5 | revertant His+ colonies, mean ± SD (S. typhimurium TA100; TA100, +S9, 5000 µM): 1216 ± 113 | Mutagenicity in the Ames test (verdict) (S. typhimurium TA100): mutagenic | Mutagenic potency (slope of the linear portion of the concentration–response function) (S. typhimurium TA100; TA100, −S9): 250.3 revertants/µM | IF (induction factor) (S. typhimurium TA100; TA100, −S9, 0.5 µM): 1.0 | revertant His+ colonies, mean ± SD (S. typhimurium TA100; TA100, −S9, 0.5 µM): 73 ± 5 | IF (induction factor) (S. typhimurium TA100; TA100, −S9, 5 µM): 1.2 | revertant His+ colonies, mean ± SD (S. typhimurium TA100; TA100, −S9, 5 µM): 88 ± 7 | IF (induction factor) (S. typhimurium TA100; TA100, −S9, 50 µM): 2.3 | revertant His+ colonies, mean ± SD (S. typhimurium TA100; TA100, −S9, 50 µM): 164 ± 16 | IF (induction factor) (S. typhimurium TA100; TA100, −S9, 500 µM): 4.9 | revertant His+ colonies, mean ± SD (S. typhimurium TA100; TA100, −S9, 500 µM): 347 ± 24 | IF (induction factor) (S. typhimurium TA100; TA100, −S9, 5000 µM): 16.7 | revertant His+ colonies, mean ± SD (S. typhimurium TA100; TA100, −S9, 5000 µM): 1195 ± 160 | Mutagen classification according to Claxton et al. (S. typhimurium TA100; TA100, −S9 and +S9): highly inductive mutagen
